Structures can show the parent of a compound that is named as a salt.
Tests used:
[1] = Octanol/water partition coefficient; assay type: physicochemical; settings: Log10(concentration in octanol phase/concentration in aqueous phase), aqueous buffer of pH 7
Procedure: Note that, in the present invention, the octanol/water partition coefficient is determined based on active ingredient concentration of each phase obtained by adding an active ingredient to a flask containing octanol and an aqueous buffer of pH 7, shaking the flask, and then determining the concentration. Specifically, the partition coefficient can be determined by calculation using an equation: Octanol/water partition coefficient=Log10(concentration in an octanol phase/concentration in an aqueous phase).

dorsal skin of a rabbit = experiment: Primary irritation index of active ingredients (4% by weight in Plastibase); assay type: in vivo; settings: active ingredient 4% by weight in Plastibase, Draize scores at 24 and 72 hours
Procedure: Low skin irritation means having a primary irritation index (P.I.I.) of 5 or less. Note that, the primary irritation index can be measured by a method described below.
An active ingredient is added to an ointment base Plastibase (manufactured by Taisho Pharmaceutical Co., Ltd.) such that its content reaches 4% by weight based on the total weight, mixed, and dispersed therein to produce a formulation.
The dorsal skin of a rabbit is shaved with an electric clipper (with an electric shaver as required). Healthy skin at two points on either side of the dorsal mid-line of the dorsal skin, that is, at four points in total, is used as administration sites. Next, the formulation prepared is taken with a spatula and spread evenly on pieces of lint each having a size of 2 cm×2 cm, and the pieces are attached onto the administration sites. The lint pieces are fixed by covering with a non-woven adhesive bandage (manufactured by Nichiban Co., Ltd., MESHPORE, No. 50). Then, the administration sites are altogether wrapped with gauze and then sealed by covering with an adhesive cloth elastic bandage (manufactured by Nichiban Co., Ltd., ELASTPORE, No. 100).
Specifically, individual skin reaction scores (sum of erythema and eschar formation and edema formation) at the administration sites of each rabbit are calculated for each administration specimen at each observation time. […] Specifically, the following equations (1) and (2) are used for the calculation.

octanol/water partition coefficient [1] | SMILES | logD [1] | primary irritation index (P.I.I.) (dorsal skin of a rabbit)
– | NC(=O)CC[C@@H]1NC(=O)[C@H](Cc2ccccc2)NC(=O)[C@H](Cc2ccc(O)cc2)NC(=O)[C@@H](N)CSSC[C@@H](C(=O)N2CCC[C@H]2C(=O)N[C@@H](CCCN=C(N)N)C(=O)NCC(N)=O)NC(=O)[C@H](CC(N)=O)NC1=O [[Arg-8]-Vasopressin] | -4.8 | –
– | CCN(C)C(=O)Oc1cccc([C@H](C)N(C)C)c1 [rivastigmine] | – | 0.5
– | CC12CC3CC(C)(C1)CC(N)(C3)C2 [memantine hydrochloride] | – | 2.5
– | CC(C(=O)O)c1ccc(CC2CCCC2=O)cc1 (stereo not drawn) [loxoprofen sodium dihydrate] | 0.8 | 0.3
0.0 | CCCc1nc(C)c2c(=O)[nH]c(-c3cc(S(=O)(=O)N4CCN(CC)CC4)ccc3OCC)nn12 [vardenafil hydrochloride hydrate] | – | –

From US12201691B2, “Core-shell structure, preparation, medicine for external application, tape agent and cosmetic product” (SEKISUI CHEMICAL CO., LTD., priority 2017, dated 2025)
